≈ marks a conversion by molar mass, not a printed value. Where “and” joins values, the source holds several entries; their conditions need not be identical. Equal values may be shown once. Read-outs that look alike come from different tables or passages of the source.
Legend:
[1] = system: HepG2 cells; assay: Mitochondrial DNA content; type: cell-based, human
Experimental: To assess the potential of mCyd to produce mitochondrial toxicity, several in vitro studies were conducted using the human hepatoma cell lines HepG2 or Huh7.
The significance of this finding is unclear, particularly since mCyd is unlikely to attain a plasma concentration of 50 μM in the clinic. For comparison, lactic acid production increases by 100% over control cells in cells treated with 10 μM FIAU (Cui L, Yoon, et al. J. Clin. Invest. 1995; 95:555-563).

[2] = system: BVDV (strain NADL); assay: BVDV cell protection assay (CPA); type: cell-based; settings: Bovine viral diarrhea virus isolates and strains, MOI of BVDV 0.04
[3] = system: CVB-2; assay: organism not typed; type: cell-based, Coxsackie B-2 virus; settings: read-out: EC50 CVB-2
[4] = system: Sb-1; assay: organism not typed; type: cell-based, Sabin type 1 poliomyelitis virus
[5] = system: REO-1; assay: microbe, parasite or virus in culture; type: cell-based, double-stranded RNA Reovirus; settings: Reovirus sp., read-out: REO
[6] = system: BVDV; type: cell-based, bovine viral diarrhea virus; settings: for EC4 log: MDBK
[7] = system: DENV-2; assay: microbe, parasite or virus in culture; type: cell-based; settings: Dengue virus, DENV2, read-out: composite EC50 range
[8] = system: Polio Virus Sb-1; assay: organism not typed; type: cell-based; settings: Vero
[9] = system: VEE; assay: microbe, parasite or virus in culture; type: cell-based; settings: Venezuelan equine encephalitis virus, Vero
[10] = system: HSV-1; assay: Antiviral activity, HSV-1 (HFF); type: cell-based; settings: Human alphaherpesvirus 1
[11] = system: VZV; assay: Antiviral activity, VZV (HFF); type: cell-based; settings: Human alphaherpesvirus 3
[12] = system: HCMV; assay: Antiviral activity, HCMV (HFF); type: cell-based; settings: Human betaherpesvirus 5
[13] = system: MCMV; assay: Antiviral activity, MCMV (MEF); type: cell-based
[14] = system: Influenza A/H3N2; assay: Antiviral activity, Influenza A/H3N2 (MDCK); type: cell-based; settings: Influenza A virus
[15] = system: Adenovirus type 1; assay: Antiviral activity, Adenovirus type 1 (A549); type: cell-based; settings: Human mastadenovirus C
[16] = system: Parainfluenza type 3; assay: Antiviral activity, Parainfluenza type 3 (MA-104); type: cell-based; settings: MA104
[17] = system: RSV type A; assay: Antiviral activity, RSV type A (MA-104); type: cell-based; settings: human respiratory syncytial virus, MA104
[18] = system: Punta Toro A; assay: organism not typed; type: cell-based; settings: LLC-MK2
[19] = system: MDCK, canine kidney cells; assay: Cytotoxicity, MDCK; type: cell-based
[20] = system: A549, Human lung carcinoma cells; assay: Cytotoxicity, A549; type: cell-based; settings: Adenovirus type 1 line
[21] = system: KB, human nasopharyngeal carcinoma; assay: Cytotoxicity, KB; type: cell-based
[22] = system: HeLa, human cervical adenocarcinoma cells; assay: Cytotoxicity, HeLa-Ohio; type: cell-based; settings: Rhinovirus type 14 line
[23] = system: HIV; type: cell-based
[24] = system: HBV; type: cell-based
[25] = system: BVDV New York-1 (NY-1) strain; assay: MDBK cells persistently infected with BVDV strain New York-1, virus titer; type: cell-based, bovine viral diarrhea virus; settings: 8 μM alone, after one passage
[26] = system: MT-4 human T-lymphocyte cells; settings: human
[27] = in vitro; settings: African green monkey
[28] = in vitro; settings: hamster
[29] = system: MA-104, Rhesus monkey kidney cells; assay: Cytotoxicity, MA-104; settings: Parainfluenza type 3 line
[30] = system: MEF mouse embryo fibroblasts; assay: Cytotoxicity assay, MEF; settings: MCMV (MEF) line
[31] = Stability in human plasma; settings: 37° C.
[32] = Cytotoxicity (cell proliferation) assay, HepG2; settings: human, HepG2 cells
[33] = system: HepG2 human hepatoma cell line; assay: Cytotoxicity (cell proliferation) assay, HepG2; settings: cells grown on collagen coated plates for 4 or 10 d
[34] = system: HepG2 cells; assay: Incorporation of drug into cellular RNA and DNA; settings: 10 μM [3H] drug, 30 hours
[35] = system: HepG2 cells; assay: Cellular RNA synthesis, [3H]-uridine incorporation; settings: read-out: CC50 RNA ([3H]Uridine); 50% reduction of uridine incorporation into cellular RNA
[36] = system: HepG2 cells; assay: Cellular DNA synthesis, [3H]-thymidine incorporation; settings: read-out: CC50 DNA ([3H]Thymidine); 50% reduction of thymidine incorporation into cellular DNA
[37] = system: HepG2 cells; assay: Transmission electron microscopy of mitochondrial ultrastructure
[38] = system: human cytidine/deoxycytidine deaminase enzymes; settings: 37° C.

Question: For `CC1(O)C(O)C(CO)OC1n1ccc(N)nc1=O` (centres unmarked) [mCyd, 4-Amino-1-(3,4-dihydroxy-5-hydroxymethyl-3-methyl-tetrahydro-furan-2-yl)-1H-pyrimidine-2-one], which “mtDNA/nuclear DNA (% of Control)” value ([1]; 10 μM, 6 day treatment) is on record?
Answer: 117.3 ± 17.5 % of Control

Question: And the “mtDNA/nuclear DNA (% of Control)” value ([1]; 10 μM, 14 day treatment)?
Answer: 99.7 ± 23.9 % of Control

Question: And the “mtDNA/nuclear DNA (% of Control)” value ([1]; 50 μM, 6 day treatment)?
Answer: 158.2 ± 17.5 % of Control

Question: And the “mtDNA/nuclear DNA (% of Control)” value ([1]; 50 μM, 14 day treatment)?
Answer: 83.0 ± 15.5 % of Control

Question: What about the EC50 [2] of the same molecule?
Answer: 0.5 µM

Question: And the EC50 [3]?
Answer: 11 µM

Question: What about the EC50 ([4]; read-out: EC50 Sb-1) of the same molecule?
Answer: 6 µM

Question: And the EC50 ([4]; read-out: Sb-1)?
Answer: 11.5 µM

Question: What about the EC50 [5] of the same molecule?
Answer: 13 µM

Question: And the EC4 log ([6]; BVDV I-N-dIns ncp (recombinant))?
Answer: 7.14 μM

Question: What about the EC4 log ([6]; BVDV I-NADL cp (recombinant)) of the same molecule?
Answer: 8.22 μM

Question: And the “suppression of de novo BVDV production” value ([6]; subcytotoxic concentrations (circa 20 μM))?
Answer: up to 6 logs

Question: What about the EC50 [7] of the same molecule?
Answer: 59 to 95 µM

Question: And the EC50 [8]?
Answer: 6 µM

Question: What about the EC50 [9] of the same molecule?
Answer: 1.3 to 45 µM

Question: What about the EC50 [10] of the same molecule?
Answer: > 100 µg/mL

Question: And the EC50 [11]?
Answer: > 20 µg/mL

Question: What about the EC50 [12] of the same molecule?
Answer: 9.9 to 15.6 µg/mL (≈ 38.5 to 60.6 µM)

Question: What about the EC50 [13] of the same molecule?
Answer: > 0.8 µM

Question: What about the EC50 [14] of the same molecule?
Answer: > 20 µM

Question: And the EC50 [15]?
Answer: > 200 µM

Question: And the EC50 [16]?
Answer: > 200 µM

Question: And the EC50 [17]?
Answer: > 200 µM

Question: What about the EC50 [18] of the same molecule?
Answer: > 200 µM

Question: And the CC50 ([19]; Influenza A/H1N1 line)?
Answer: > 200 µM

Question: What about the CC50 ([19]; Influenza A/H3N2 line) of the same molecule?
Answer: 45 to 65 µM

Question: What about the CC50 ([19]; Influenza B line) of the same molecule?
Answer: 55 to 140 µM

Question: And the CC50 [20]?
Answer: > 200 µM

Question: What about the CC50 ([21]; Rhinovirus type 2 line, read-out: CC50) of the same molecule?
Answer: > 200 µM

Question: And the CC50 ([21]; Rhinovirus type 5 line)?
Answer: 20 to 30 µg/mL

Question: What about the CC50 [22] of the same molecule?
Answer: 20->100 μg/mL

Question: And the “activity against HIV” value [23]?
Answer: no activity

Question: And the “activity against HBV” value [24]?
Answer: no activity

Question: What about the “reduction of viral titers” value [25] of the same molecule?
Answer: approximately 3.5 log10

Question: What about the CC50 [26] of the same molecule?
Answer: 34 µM

Question: And the CC50 [27]?
Answer: > 100 µM

Question: And the CC50 [28]?
Answer: > 100 µM

Question: And the CC50 [29]?
Answer: > 200 µM

Question: What about the CC50 [30] of the same molecule?
Answer: 2.4 µM

Question: What about the “in vitro stability, deamination to mUrd” value [31] of the same molecule?
Answer: remained essentially unchanged

Question: What about the CC50 [32] of the same molecule?
Answer: 200 µM

Question: And the CC50 [33]?
Answer: > 200 µM

Question: And the “Incorporated drug amount, DNA” value [34]?
Answer: 0.0013 pmole/μg DNA and 0.0013 ± 0.0008^a pmole/μg DNA

Question: What about the “Incorporated drug amount, RNA” value [34] of the same molecule?
Answer: 0.0014 pmole/μg RNA and 0.0014 ± 0.0008^a pmole/μg RNA

Question: What about the CC50 [35] of the same molecule?
Answer: 186 ± 28.2 µM

Question: What about the CC50 [36] of the same molecule?
Answer: 112 ± 34.5 µM

Question: What about the “Electron Microscopy, Lipid Droplet Form.” value ([37]; 10 μM, 14 days) of the same molecule?
Answer: Negative

Question: And the “Electron Microscopy, Mito. Morphol.” value ([37]; 10 μM, 14 days)?
Answer: Normal^d

Question: What about the “cells in which 1 to 2 mitochondria out of an average of 25 appeared enlarged” value ([37]; 14 days of exposure to 10 μM) of the same molecule?
Answer: 17%

Question: What about the “in vitro stability, deamination to mUrd” value [38] of the same molecule?
Answer: remained essentially unchanged

Source: US7625875B2 (priority 2002, dated 2009)
